Test results taken from patent US8383094B2, “Hepatitis C virus inhibitors” (Bristol-Myers Squibb Company, priority 2008, dated 2013).

What follows are compounds tested on HCV 1b genotype (assay: HCV Replicon assay (HCV-neo replicon cells, wild-type)). Conditions: HCV 1b genotype replicon; range class A-D; read-out: 1b EC50 (in μM or range).
Assay type: cell-based

Compound	EC50 [µM]
CCCOC(=O)N[C@@H](C(=O)N1CCC[C@H]1C(=O)Nc1ccc(C#Cc2ccc(NC(=O)[C@@H]3CCCN3C(=O)[C@H](NC(=O)OCCC)c3ccccc3)cc2)cc1)c1ccccc1 [VN56, Dipropyl (1,2-ethynediylbis(4,1-phenylenecarbamoyl(2S)-2,1-pyrrolidinediyl((1R)-2-oxo-1-phenyl-2,1-ethanediyl)))biscarbamate]	< 0.00457

Same assay, conditions: Hepatitis C virus, HCV 1b genotype replicon; range class A-D; read-out: 1b EC50 (in μM or range)

Compound	EC50 [µM]
CN[C@H](C(=O)N1CCC[C@H]1C(=O)Nc1ccc(C#Cc2ccc(NC(=O)[C@@H]3CCCN3C(=O)[C@@H](NC)c3ccccc3)cc2)cc1)c1ccccc1 [VN31, (2S,2′S)-N,N′-(1,2-ethynediyldi-4,1-phenylene)bis(1-((2S)-2-(methylamino)-2-phenylacetyl)-2-pyrrolidinecarboxamide)]	< 0.00457
CC(=O)N(C)C(C(=O)N1CCC[C@H]1C(=O)Nc1ccc(C#Cc2ccc(NC(=O)[C@@H]3CCCN3C(=O)C(c3ccccc3)N(C)C(C)=O)cc2)cc1)c1ccccc1 (single isomer, unassigned) [VN35]	0.1 to 0.999
CC[C@H](C(=O)N1CCC[C@H]1C(=O)Nc1ccc(C#Cc2ccc(NC(=O)[C@@H]3CCCN3C(=O)[C@@H](CC)c3ccccc3)cc2)cc1)c1ccccc1 [VN6, (2S,2′S)-N,N′-(1,2-ethynediyldi-4,1-phenylene)bis(1-((2S)-2-phenylbutanoyl)-2-pyrrolidinecarboxamide)]	0.00457 to 0.099
CC(=O)N1CCC[C@H]1C(=O)Nc1ccc(C#Cc2ccc(NC(=O)C3CCN(C(=O)OCc4ccccc4)C3)cc2)cc1 (stereo partly drawn) [Example D4, Benzyl 3-((4-((4-((1-acetyl-L-prolyl)amino)phenyl)ethynyl)phenyl)carbamoyl)-1-pyrrolidinecarboxylate]	1 to 10
COc1cccc2c(C(=O)N3CCC[C@H]3C(=O)Nc3ccc(C#Cc4ccc(NC(=O)[C@@H]5CCCN5C(=O)c5nc(Cl)cc6c(OC)cccc56)cc4)cc3)nc(Cl)cc12 [Example D33, (2S,2′S)-N,N′-(1,2-ethynediyldi-4,1-phenylene)bis(1-((3-chloro-5-methoxy-1-isoquinolinyl)carbonyl)-2-pyrrolidinecarboxamide)]	0.00457 to 0.099
COc1cccc2c(C(=O)N3CCC[C@H]3C(=O)Nc3ccc(C#Cc4ccc(NC(=O)[C@@H]5CCCN5C(C)=O)cc4)cc3)nc(Cl)cc12 [Example D46, (2S)-1-Acetyl-N-(4-((4-((((2S)-1-((3-chloro-5-methoxy-1-isoquinolinyl)carbonyl)-2-pyrrolidinyl)carbonyl)amino)phenyl)ethynyl)phenyl)-2-pyrrolidinecarboxamide]	0.1 to 0.999
CC(C)C(=O)N[C@@H](C(=O)N1CCC[C@H]1C(=O)Nc1ccc(C#Cc2ccc(NC(=O)[C@@H]3CCCN3C(=O)[C@H](NC(=O)C(C)C)c3ccccc3)cc2)cc1)c1ccccc1 [VN25, (2S,2′S)-N,N′-(1,2-ethynediyldi-4,1-phenylene)bis(1-((2R)-2-(isobutyrylamino)-2-phenylacetyl)-2-pyrrolidinecarboxamide)]	< 0.00457
O=C(Nc1ccc(C#Cc2ccc(NC(=O)[C@@H]3CCCN3C(=O)[C@H](O)c3ccccc3)cc2)cc1)[C@@H]1CCCN1C(=O)[C@H](O)c1ccccc1 [Example D43, (2S,2′S)-N,N′-(1,2-ethynediyldi-4,1-phenylene)bis(1-((2R)-2-hydroxy-2-phenylacetyl)-2-pyrrolidinecarboxamide)]	< 0.00457
O=C(Nc1ccc(C#Cc2ccc(NC(=O)[C@@H]3CCCN3C(=O)[C@H](O)c3ccccc3)cc2)cc1)[C@@H]1CCCN1C(=O)c1nc(Cl)cc2ccccc12 [Example D44, (2S)-1-((3-Chloro-1-isoquinolinyl)carbonyl)-N-(4-((4-((((2S)-1-((2R)-2-hydroxy-2-phenylacetyl)-2-pyrrolidinyl)carbonyl)amino)phenyl)ethynyl)phenyl)-2-pyrrolidinecarboxamide]	< 0.00457
O=C(Nc1ccc(C#Cc2ccc(NC(=O)C3CCN(C(=O)OCc4ccccc4)C3)cc2)cc1)C1CCN(C(=O)OCc2ccccc2)C1 (centres unmarked) [Example D5, Dibenzyl3,3′-(1,2-ethynediylbis(4,1-phenylenecarbamoyl))di(1-pyrrolidinecarboxylate)]	1 to 10
CC(=O)N1CCC[C@H]1C(=O)Nc1ccc(C#Cc2ccc(NC(=O)[C@@H]3C[C@@H](OC(C)(C)C)CN3C(=O)OCc3ccccc3)cc2)cc1 [Example D7, Benzyl (2S,4R)-2-((4-((4-((((2S)-1-acetyl-2-pyrrolidinyl)carbonyl)amino)phenyl)ethynyl)phenyl)carbamoyl)-4-tert-butoxy-1-pyrrolidinecarboxylate]	1 to 10
O=C(Nc1ccc(C#Cc2ccc(NC(=O)[C@@H]3CCCCN3C(=O)OCc3ccccc3)cc2)cc1)[C@@H]1CCCCN1C(=O)OCc1ccccc1 [Example D12, Dibenzyl (2S,2′S)-2,2′-(1,2-ethynediylbis(4,1-phenylenecarbamoyl))di(1-piperidinecarboxylate)]	0.1 to 0.999
CN(C)[C@H](C(=O)N1CCC[C@H]1C(=O)Nc1ccc(C#Cc2ccc(NC(=O)[C@@H]3CCCN3C(=O)[C@H](c3ccccc3)N(C)C)cc2)cc1)c1ccccc1 [VN22, (2S,2′S)-N,N′-(1,2-ethynediyldi-4,1-phenylene)bis(1-((2S)-2-(dimethylamino)-2-phenylacetyl)-2-pyrrolidinecarboxamide)]	< 0.00457
O=C(Nc1ccc(C#Cc2ccc(NC(=O)[C@@H]3CCCN3C(=O)Cc3ccccc3)cc2)cc1)C1CC1 [Example D15, N-(4-((4-((cyclopropylcarbonyl)amino)phenyl)ethynyl)phenyl)-1-(phenylacetyl)-L-prolinamide]	0.1 to 0.999
C[C@@H](C(=O)N1CCC[C@H]1C(=O)Nc1ccc(C#Cc2ccc(NC(=O)[C@@H]3CCCN3C(=O)[C@H](C)c3ccccc3)nc2)cn1)c1ccccc1 [Example D50, (2S,2′S)-N,N′-(1,2-ethynediyldi-5,2-pyridinediyl)bis(1-((2R)-2-phenylpropanoyl)-2-pyrrolidinecarboxamide)]	< 0.00457
CN(C)[C@@H](C(=O)N1CCC[C@H]1C(=O)Nc1ccc(C#Cc2ccc(NC(=O)[C@@H]3CCCN3C(=O)[C@@H](c3ccc(F)cc3)N(C)C)cc2)cc1)c1ccc(F)cc1 [Example D36, (2S,2′S)-N,N′-(1,2-ethynediyldi-4,1-phenylene)bis(1-((2R)-2-(dimethylamino)-2-(4-fluorophenyl)acetyl)-2-pyrrolidinecarboxamide)]	< 0.00457
